We go through 27 compounds from patent US20160287589A1, “SUBSTITUTED-IMIDAZOPYRIDAZINES” (BAYER PHARMA AKTIENGESELLSCHAFT, priority 2013, published 2016).

The target of assay [1] is T1, MKNK1 (Homo sapiens, UniProt Q9BUB5, T385D).
T1 construct: GST (N); purchased Carna Biosciences 02-145; host or cells: insect cells (baculovirus expression system)
Description: MKNK1 kinase assay (MKNK1 TR-FRET assay). The assay is classed as biochemical. Particulars: 10 μM ATP, 15 min preincubation.

The target of assay [2] is T1, MKNK1. Kind of assay: MKNK1 kinase high ATP assay (TR-FRET-based). Type of assay: biochemical. As to conditions: 2 mM ATP, 15 min preincubation. Summed up: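 TR-FRET read-out (anti-phospho-S6 Ser236 antibody, Eu/XL665) of biotin-peptide phosphorylation (0.06 μM) at high ATP (2 mM final). Enzyme was GST-MKNK1 full length, T344D, pre-bound to compound for 15 min before a 30 min reaction at 22 °C, pH 7.5. Inhibition scaled between no-inhibitor (0%) and no-enzyme (100%) wells.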
For orientation: Time-resolved FRET reads energy transfer from a long-lived donor to a nearby acceptor.

T1 sequence (Q9BUB5 1-424 isoform Q9BUB5-2 T344D): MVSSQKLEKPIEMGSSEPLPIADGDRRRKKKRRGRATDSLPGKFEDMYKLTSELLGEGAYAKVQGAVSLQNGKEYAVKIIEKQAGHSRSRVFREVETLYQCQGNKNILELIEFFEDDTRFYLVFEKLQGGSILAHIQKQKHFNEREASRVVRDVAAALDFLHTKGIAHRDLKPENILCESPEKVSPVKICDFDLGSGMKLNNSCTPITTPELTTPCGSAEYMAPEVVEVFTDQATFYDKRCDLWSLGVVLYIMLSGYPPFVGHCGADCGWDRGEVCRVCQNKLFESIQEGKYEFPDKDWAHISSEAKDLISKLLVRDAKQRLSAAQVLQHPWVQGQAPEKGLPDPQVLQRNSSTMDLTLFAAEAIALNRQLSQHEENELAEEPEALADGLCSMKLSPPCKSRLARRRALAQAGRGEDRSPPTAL

Regarding `Cn1ccc(C(=O)N2CCC[C@H]2CCOc2ccc3ncc(-c4cc5ccccc5o4)n3n2)n1` [Example I-50, [(2S)-2-(2-{[3-(1-Benzofuran-2-yl)imidazo[1,2-b]-pyridazin-6-yl]oxy}ethyl)pyrrolidin-1-yl](1-methyl-1H-pyrazol-3-yl)methanone], the IC50 turned out to be 2.4 nM against MKNK1 [1] (Table 1a) and 3.2 nM at MKNK1 [2] (Table 2a).
As for `O=C(NCCOc1ccc2ncc(-c3cc4ccccc4o3)n2n1)c1ccccn1` [Example I-70, N-(2-{[3-(1-Benzofuran-2-yl)imidazo[1,2-b]-pyridazin-6-yl]oxy}ethyl)pyridine-2-carboxamide], the IC50 on MKNK1 [1] (Table 1a) worked out at 15.1 nM; against MKNK1 [2] (Table 2a) it was 45.8 nM.
With `O=C1CC[C@H](COc2ccc3ncc(-c4cc5c(N6CCNCC6)cccc5o4)n3n2)N1` [II-19, (5R)-5-[({3-[4-(Piperazin-1-yl)-1-benzofuran-2-yl]imidazo[1,2-b]pyridazin-6-yl}-oxy)methyl]pyrrolidin-2-one], the IC50 at MKNK1 [1] (Table 1b) and at MKNK1 [2] (Table 2b) was 0.4 nM each time.
For `COc1nccc2oc(-c3cnc4ccc(OC[C@H]5CCC(=O)N5)nn34)cc12` [IV-6, (5R)-5-({[3-(4-Methoxyfuro[3,2-c]pyridin-2-yl)imidazo[1,2-b]pyridazin-6-yl]-oxy}methyl)pyrrolidin-2-one], the half-maximal inhibitory concentration (IC50) at MKNK1 [1] (Table 1d) was found to be 4 nM; at MKNK1 [2] (Table 2d) it was 8 nM.
On to `CCN(CCOC(C)(C)C)c1nccc2oc(-c3cnc4ccc(OC[C@H](C)N)nn34)cc12` [III-26, 2-(6-{[(2S)-2-Aminopropyl]oxy}imidazo[1,2-b]pyridazin-3-yl)-N-(2-tert-butoxyethyl)-N-ethylfuro[3,2-c]pyridin-4-amine], for which the half-inhibitory concentration (IC50) is 1.7 nM on MKNK1 [1] (Table 1c) and 0.8 nM at MKNK1 [2] (Table 2c).
As for `COC[C@H]1CCCN1c1cccc2oc(-c3cnc4ccc(OCCCS(C)(=O)=O)nn34)cc12` [II-6, 3-{4-[(2R)-2-(Methoxymethyl)pyrrolidin-1-yl]-1-benzofuran-2-yl}-6-[3-(methyl-sulfonyl)propoxy]imidazo[1,2-b]pyridazine], the concentration for half-maximal inhibition (IC50) was 7.1 nM against MKNK1 [1] (Table 1b) and 14 nM against MKNK1 [2] (Table 2b).
In the case of `COCC(=O)NC[C@H](Oc1ccc2ncc(-c3cc4ccccc4o3)n2n1)c1cccnc1` [Example I-30, N-[(2R)-2-{[3-(1-Benzofuran-2-yl)imidazo[1,2-b]pyridazin-6-yl]oxy}-2-(pyridin-3-yl)ethyl]-2-methoxyacetamide], the IC50 on MKNK1 [1] (Table 1a) came out at 10.3 nM; on MKNK1 [2] (Table 2a), 34.8 nM.
Consider `O=C1CC[C@H](COc2ccc3ncc(-c4cc5c(N6CCNCC6)nccc5o4)n3n2)N1` [III-71, (5R)-5-[({3-[4-(Piperazin-1-yl)furo[3,2-c]pyridin-2-yl]imidazo[1,2-b]pyridazin-6-yl}oxy)methyl]pyrrolidin-2-one], for which the half-inhibitory concentration (IC50) at MKNK1 [1] (Table 1c) was determined as 2 nM; against MKNK1 [2] (Table 2c) it was 1.4 nM.
On to `CC(C)(C)C(=O)N1CCC[C@H]1CCOc1ccc2ncc(-c3cc4cc(Cl)ccc4o3)n2n1` [Example I-40, 1-[(2S)-2-(2-{[3-(5-Chloro-1-benzofuran-2-yl)imidazo[1,2-b]pyridazin-6-yl]-oxy}ethyl)pyrrolidin-1-yl]-2,2-dimethylpropan-1-one], for which the values for the IC50 on MKNK1 [1] (Table 1a) and on MKNK1 [2] (Table 2a) were 26 nM and 76.4 nM, respectively.
In the case of `O=C1CNC[C@H](COc2ccc3ncc(-c4cc5c(N6CCOCC6)nccc5o4)n3n2)N1` [III-89, (6R)-6-[({3-[4-(Morpholin-4-yl)furo[3,2-c]pyridin-2-yl]imidazo[1,2-b]pyridazin-6-yl}oxy)methyl]piperazin-2-one], the half-maximal inhibitory concentration (IC50) against MKNK1 [1] (Table 1c) was 2.9 nM; against MKNK1 [2] (Table 2c), 8 nM.
For the compound `COc1ccc2ncc(-c3cc4c(N5CCOC(C)(C)C5)nccc4o3)n2n1` [III-146, 3-[4-(2,2-dimethylmorpholin-4-yl)furo[3,2-c]pyridin-2-yl]-6-methoxy-imidazo[1,2-b]pyridazine], the IC50 against MKNK1 [1] (Table 1c) turned out to be 27 nM; against MKNK1 [2] (Table 2c), 8.7 nM.
Regarding `COc1ccc2oc(-c3cnc4ccc(OC[C@@H]5CCC(=O)N5)nn34)cc2c1` [Example I-13, (5S)-5-({[3-(5-methoxy-1-benzofuran-2-yl)imidazo[1,2-b]pyridazin-6-yl]oxy}methyl)pyrrolidin-2-one], the 50% inhibitory concentration (IC50) against MKNK1 [1] (Table 1a) came to 3.7 nM; against MKNK1 [2] (Table 2a), 10.7 nM.
On to `CCN(CCOC(C)(C)C)c1nccc2oc(-c3cnc4ccc(OC[C@H]5CCC(=O)N5)nn34)cc12` [III-80, (5R)-5-{[(3-{4-[(2-tert-Butoxyethyl)(ethyl)amino]furo[3,2-c]pyridin-2-yl}imidazo[1,2-b]pyridazin-6-yl)oxy]methyl}pyrrolidin-2-one], for which the IC50 on MKNK1 [1] (Table 1c) came out at 0.4 nM; on MKNK1 [2] (Table 2c), 0.2 nM.
Regarding `CCC(=O)N1CCC[C@H]1CCOc1ccc2ncc(-c3cc4ccccc4o3)n2n1` [Example I-44, 1-[(2S)-2-(2-{[3-(1-Benzofuran-2-yl)imidazo[1,2-b]-pyridazin-6-yl]oxy}ethyl)pyrrolidin-1-yl]propan-1-one], the IC50 against MKNK1 [1] (Table 1a) came to 1.1 nM; on MKNK1 [2] (Table 2a), 1.7 nM.
On to `COc1nccc2oc(-c3cnc4ccc(OCC5CCCC(=O)N5)nn34)cc12` (stereo not drawn) [IV-9, 6-({[3-(4-Methoxyfuro[3,2-c]pyridin-2-yl)imidazo[1,2-b]pyridazin-6-yl]oxy}-methyl)piperidin-2-one], for which the IC50 was determined as 3 nM at MKNK1 [1] (Table 1d) and 9 nM against MKNK1 [2] (Table 2d).
Regarding `CC(=O)N1CCC[C@H]1CCOc1ccc2ncc(-c3cc4cc(Cl)ccc4o3)n2n1` [Example I-31, 1-[(2S)-2-(2-{[3-(5-Chloro-1-benzofuran-2-yl)imidazo[1,2-b]pyridazin-6-yl]oxy}ethyl)pyrrolidin-1-yl]ethanone], the results for the IC50 at MKNK1 [1] (Table 1a) and at MKNK1 [2] (Table 2a) were 16.7 nM and 35.2 nM, respectively.
Consider `C[C@@H]1CN(c2cccc3oc(-c4cnc5ccc(OCC(F)(F)F)nn45)cc23)CCN1` [II-59, 3-{4-[(3R)-3-methylpiperazin-1-yl]-1-benzofuran-2-yl}-6-(2,2,2-trifluoroethoxy)im-idazo[1,2-b]pyridazine], for which the IC50 against MKNK1 [1] (Table 1b) amounted to 6.4 nM; against MKNK1 [2] (Table 2b) it was 2 nM.
Turning to `CS(=O)(=O)CCCOc1ccc2ncc(-c3cc4c(N5CCOCC5)nccc4o3)n2n1` [III-42, 6-[3-(Methylsulfonyl)propoxy]-3-[4-(morpholin-4-yl)furo[3,2-c]pyridin-2-yl]imidazo[1,2-b]pyridazine], the IC50 at MKNK1 [1] (Table 1c) was 2.2 nM; on MKNK1 [2] (Table 2c), 4.7 nM.
As for `C[C@H](N)COc1ccc2ncc(-c3cc4c(N5CCOC[C@H]5C)cccc4o3)n2n1` [II-57, (2S)-1-[(3-{4-[(3R)-3-methylmorpholin-4-yl]-1-benzofuran-2-yl}imidazo[1,2-b]pyridazin-6-yl)oxy]propan-2-amine], the IC50 on MKNK1 [1] (Table 1b) was 53.7 nM; at MKNK1 [2] (Table 2b), 75.1 nM.
Turning to `CCCCC(=O)NCCOc1ccc2ncc(-c3cc4ccccc4o3)n2n1` [Example I-74, N-(2-{[3-(1-Benzofuran-2-yl)imidazo[1,2-b]-pyridazin-6-yl]oxy}ethyl)pentanamide], the IC50 turned out to be 5.4 nM on MKNK1 [1] (Table 1a) and 16.7 nM on MKNK1 [2] (Table 2a).
Take `C[C@H]1CN(c2nccc3oc(-c4cnc5ccc(OC[C@H]6CCC(=O)N6)nn45)cc23)CCO1` [III-123, (5R)-5-{[(3-{4-[(2S)-2-methylmorpholin-4-yl]furo[3,2-c]pyridin-2-yl}imidazo[1,2-b]pyridazin-6-yl)oxy]methyl}pyrrolidin-2-one]: the IC50 was found to be 2.2 nM against MKNK1 [1] (Table 1c) and 0.5 nM on MKNK1 [2] (Table 2c).
The corresponding values for `C[C@H](N)COc1ccc2ncc(-c3cc4c(N(C)C5CCN(C)CC5)nccc4o3)n2n1` [III-13, 2-(6-{[(2S)-2-Aminopropyl]oxy}imidazo[1,2-b]pyridazin-3-yl)-N-methyl-N-(1-methylpiperidin-4-yl)furo[3,2-c]pyridin-4-amine] are 13 nM and 62 nM.
With `O=C1CC[C@H](COc2ccc3ncc(-c4cc5c(N6CCC[C@@H]6CO)nccc5o4)n3n2)N1` [III-67, (5R)-5-{[(3-{4-[(2R)-2-(Hydroxymethyl)pyrrolidin-1-yl]furo[3,2-c]pyridin-2-yl}imidazo[1,2-b]pyridazin-6-yl)oxy]methyl}pyrrolidin-2-one], the half-inhibitory concentration (IC50) against MKNK1 [1] (Table 1c) came to 10.7 nM; on MKNK1 [2] (Table 2c), 11 nM.
The corresponding values for `COC[C@@H]1CCCN1c1nccc2oc(-c3cnc4ccc(OC[C@H]5CCC(=O)N5)nn34)cc12` [III-83, (5R)-5-{[(3-{4-[(2S)-2-(Methoxymethyl)pyrrolidin-1-yl]furo[3,2-c]pyridin-2-yl}imidazo[1,2-b]pyridazin-6-yl)oxy]methyl}pyrrolidin-2-one] are 11.6 nM and 19.1 nM.
For `Cc1ccccc1C(=O)NCCOc1ccc2ncc(-c3cc4ccccc4o3)n2n1` [Example I-71, N-(2-{[3-(1-Benzofuran-2-yl)imidazo[1,2-b]-pyridazin-6-yl]oxy}ethyl)-2-methylbenzamide], the results for the 50% inhibitory concentration (IC50) against MKNK1 [1] (Table 1a) and on MKNK1 [2] (Table 2a) were 4.6 nM and 14.4 nM, respectively.
`CC1(C)CN(c2cccc3oc(-c4cnc5ccc(OCC(F)(F)F)nn45)cc23)CCN1` [II-54, 3-[4-(3,3-dimethylpiperazin-1-yl)-1-benzofuran-2-yl]-6-(2,2,2-trifluoroethoxy)im-idazo[1,2-b]pyridazine]: the IC50 on MKNK1 [1] (Table 1b) stood at 2.3 nM; against MKNK1 [2] (Table 2b), 2.4 nM.
For the compound `COc1nccc2oc(-c3cnc4ccc(OCCC5CCC(=O)N5)nn34)cc12` (stereo not drawn) [IV-2, 5-(2-{[3-(4-Methoxyfuro[3,2-c]pyridin-2-yl)imidazo[1,2-b]pyridazin-6-yl]oxy}-ethyl)pyrrolidin-2-one], the half-maximal inhibitory concentration (IC50) against MKNK1 [1] (Table 1d) was 11 nM; at MKNK1 [2] (Table 2d) it was 26 nM.

One may read the IC50 as the concentration that gives 50% inhibition. A higher IC50 goes with weaker potency in that assay.
